Columns and labels:
SEM cells [1] = experiment: cell viability relative to DMSO control; higher = less cytotoxic; settings: 48 h
In short: (§1)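 Viability values are per-plate percentages of DMSO wells, with background from cell-free wells. Library compounds in DMSO were pin-dosed, in an 11-point threefold series from 47 μM to 0.79 nM, onto NOMO1 or SEM (500 cells/well) or P12-Ichikawa (1000 cells/well) leukemia cells in 1536-well plates (5 μl). Those cells had been adapted for at least four passages in each medium, and CellTiter-Glo One luminescence was read after 48 h at 37°C.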

SEM cells [2] = experiment: AUC of viability dose-response curve (% viability x log10 dose units); higher = less sensitive; settings: 48 h
In short: (§2)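 Seeding of medium-adapted leukemia cells was at 500 or 1000 cells/well in 1536-well plates, followed by 48 h at 37°C with library compounds in DMSO at 11 threefold doses from 47 μM to 0.79 nM. CellTiter-Glo One luminescence was normalised per plate to DMSO and cell-free wells and fitted as a four-parameter log-logistic function of log10 dose. Area under the curve was integrated by trapezoidal rule, with curves exceeding full viability scaled and curves failing quality control removed.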

P12-Ichikawa [3] = experiment: as above; settings: 48 h
In short: as §2

NOMO1 = experiment: as above; settings: 48 h
In short: as §2

P12-Ichikawa [4] = experiment: cell viability relative to DMSO control; higher = less cytotoxic; settings: HPLM + 10% dialyzed FBS, 48 h
In short: as §1

CN1C(=O)C(=C\C2=C1N=C(NC3=CC=CC(=C3)C(O)=O)N=C2)/C4=C(Cl)C=CC=C4Cl
cell viability [%], SEM cells [1]
Settings | HPLM + 10% dialyzed FBS | RPMI 5 mM glucose + 10% FBS | RPMI 5 mM glucose + 10% dialyzed FBS
0.000781 µM | 106 | 103 | 106
0.00234 µM | 114 | 124 | 118
0.00702 µM | 108 | 132 | 136
0.0211 µM | 112 | 114 | 130
0.0632 µM | 110 | 125 | 121
0.19 µM | 116 | 123 | 115
0.569 µM | 107 | 90.9 | 100
1.71 µM | 110 | 101 | 116
5.12 µM | 104 | 84.2 | 97
15.4 µM | 67.4 | 65.6 | 73.1
46.1 µM | 31.9 | 25 | 37.8

AUC of viability dose-response curve
Settings | NOMO1 | P12-Ichikawa [3] | SEM cells [2]
HPLM + 10% dialyzed FBS | 465 | 468 | 439
RPMI 5 mM glucose + 10% FBS | 467 | 465 | 405
RPMI 5 mM glucose + 10% dialyzed FBS | 461 | 463 | 426

COc1cc(CCc2cc(NC(=O)c3ccc(N4C[C@@H](C)N[C@@H](C)C4)cc3)n[nH]2)cc(OC)c1
cell viability [%], SEM cells [1]
Settings | HPLM + 10% dialyzed FBS | RPMI 5 mM glucose + 10% FBS | RPMI 5 mM glucose + 10% dialyzed FBS
0.000781 µM | 109 | 111 | 122
0.00234 µM | 125 | 113 | 122
0.00702 µM | 131 | 117 | 124
0.0211 µM | 128 | 123 | 125
0.0632 µM | 127 | 96.1 | 101
0.19 µM | 52 | 47.8 | 52.1
0.569 µM | 85.8 | 80.7 | 96.2
1.71 µM | 77 | 66.2 | 87.7
5.12 µM | 64.4 | 63.5 | 64.1
15.4 µM | 29.8 | 29.7 | 31.6
46.1 µM | 18 | 19.5 | 18.5

Settings | AUC of viability dose-response curve | cell viability [%]
NOMO1, HPLM + 10% dialyzed FBS | 442 | –
NOMO1, RPMI 5 mM glucose + 10% FBS | 466 | –
NOMO1, RPMI 5 mM glucose + 10% dialyzed FBS | 455 | –
P12-Ichikawa [3], HPLM + 10% dialyzed FBS | 448 | –
P12-Ichikawa [3], RPMI 5 mM glucose + 10% FBS | 435 | –
P12-Ichikawa [3], RPMI 5 mM glucose + 10% dialyzed FBS | 414 | –
P12-Ichikawa [4], 0.000781 µM | – | 124
P12-Ichikawa [4], 0.00234 µM | – | 136
P12-Ichikawa [4], 0.00702 µM | – | 118
P12-Ichikawa [4], 0.0211 µM | – | 130
P12-Ichikawa [4], 0.0632 µM | – | 123
P12-Ichikawa [4], 0.19 µM | – | 121
P12-Ichikawa [4], 0.569 µM | – | 120
P12-Ichikawa [4], 1.71 µM | – | 119
P12-Ichikawa [4], 5.12 µM | – | 109
P12-Ichikawa [4], 15.4 µM | – | 107
P12-Ichikawa [4], 46.1 µM | – | 90
SEM cells [2], HPLM + 10% dialyzed FBS | 333 | –
SEM cells [2], RPMI 5 mM glucose + 10% FBS | 319 | –
SEM cells [2], RPMI 5 mM glucose + 10% dialyzed FBS | 332 | –

CN(C)Cc1c(C(=O)NCCOc2ccc(C(=O)NO)cc2)oc2ccccc12
AUC of viability dose-response curve
Settings | NOMO1 | P12-Ichikawa [3] | SEM cells [2]
HPLM + 10% dialyzed FBS | 366 | 347 | 324
RPMI 5 mM glucose + 10% FBS | 372 | 345 | 326
RPMI 5 mM glucose + 10% dialyzed FBS | 375 | 357 | 332

C=CCNc1c(O)cc2c(O)c1C[C@@H](C)C[C@H](OC)[C@H](O)[C@@H](C)/C=C(/C)[C@H](OC(N)=O)[C@@H](OC)/C=C\C=C(\C)C(=O)N2
AUC of viability dose-response curve
Settings | NOMO1 | P12-Ichikawa [3] | SEM cells [2]
HPLM + 10% dialyzed FBS | 419 | 428 | 336
RPMI 5 mM glucose + 10% FBS | 411 | 398 | 324
RPMI 5 mM glucose + 10% dialyzed FBS | 401 | 410 | 305

Cc1cn[nH]c1
cell viability [%], SEM cells [1]
Settings | HPLM + 10% dialyzed FBS | RPMI 5 mM glucose + 10% dialyzed FBS
0.000781 µM | 89.9 | 106
0.00234 µM | 115 | 121
0.00702 µM | 121 | 119
0.0211 µM | 115 | 131
0.0632 µM | 118 | 123
0.19 µM | 122 | 131
0.569 µM | 121 | 138
1.71 µM | 121 | 123
5.12 µM | 114 | 143
15.4 µM | 69 | 94.6
46.1 µM | 95.6 | 115

AUC of viability dose-response curve
Settings | NOMO1 | P12-Ichikawa [3] | SEM cells [2]
HPLM + 10% dialyzed FBS | 456 | 461 | 456
RPMI 5 mM glucose + 10% FBS | 471 | 469 | 458
RPMI 5 mM glucose + 10% dialyzed FBS | 465 | 461 | 476

O=C(N[C@@H](c1ccccc1)[C@@H]1CCCCN1)c1cccc(C(F)(F)F)c1Cl
AUC of viability dose-response curve
Settings | NOMO1 | P12-Ichikawa [3] | SEM cells [2]
HPLM + 10% dialyzed FBS | 444 | 465 | 461
RPMI 5 mM glucose + 10% FBS | 462 | 465 | 450
RPMI 5 mM glucose + 10% dialyzed FBS | 408 | 464 | 407

From the supplement of paper PMC11451515
